Key:
[1] = Comparison between stabilizing reagents, lyophilized ceftolozane samples stored at 60° C. for 7 days, HPLC purity; assay type: physicochemical; settings: without any stabilizing agent
[2] = Residual rate of ceftolozane without stabilizing agent after 3 days at 70° C., HPLC; assay type: physicochemical; settings: 100 mg of ceftolozane, no stabilizing agent

overall decrease in purity [1]: 5.88% | residual rate [2]: 51.2%
Compound: Cn1c(N)c(NC(=O)NCCN)c[n+]1CC1=C(C(=O)[O-])N2C(=O)[C@@H](NC(=O)/C(=N\OC(C)(C)C(=O)O)c3nsc(N)n3)[C@H]2SC1 [Ceftolozane, (6R,7R)-3-[(5-amino-4-{[(2-aminoethyl)carbamoyl]amino}-1-methyl-1H-pyrazol-2-ium-2-yl)methyl]-7-({(2Z)-2-(5-amino-1,2,4-thiadiazol-3-yl)-2-[(1-carboxy-1-methylethoxy)imino]acetyl}amino)-8-oxo-5-thia-1-azabicyclo[4.2.0]oct-2-ene-2-carboxylate]
